Tested on: anti-al mAb, 3-2F1
Assay type: binding, mouse
Conditions: for Inhibition of binding of rabbit a1 Ig to anti-a1 antibody (in words): RIA with mAb 3-2F1, 24 h preincubation of inhibitor, result in words

| Substance | expression of an a1 epitope (in words) (conclusion from peptide inhibition of al Ig binding to anti-al) | Inhibition of binding of rabbit a1 Ig to anti-a1 antibody (in words) |
| --- | --- | --- |
| IT_SPTTEDTAT_YFCA [RA1] | each appear to define an al epitope | – |
| IGYIYPNIDDSAY_SQ [SMA1] | – | Neither the substituted peptide, SMA1, nor the control peptide, UB1, inhibited binding |
| MQIFVKTLTGKDPGG [UB1, reference compound] | – | Neither the substituted peptide, SMA1, nor the control peptide, UB1, inhibited binding |

Reference: PMC2189693 (The Journal of Experimental Medicine, 1988)
